# Patent US12215133B2 (BrightGene Bio-Medical Technology Co., Ltd., priority 2021, dated 2025)
# Where two headings read alike, the source gives them in different places. Marks after values point to notes of the source that are not given here.
# System: C57BL/6 mouse model having STZ-HFD feed-induced diabetes combined NASH
# Format: in vivo
# Details: STZ+HFD C57BL/6 mice; for Fasting blood glucose / Ballooning lesion (score) / Inflammatory cell infiltration (score) / Steatosis (score) / Total score of NAS / Fibrosis percentage / % HbAC (glycosylated hemoglobin) / ALT / AST / HDL-c / LDL-c / TC / TG / Percentage of decrease in % HbAC: Mean ± SEM; for Ballooning lesion (score) / Inflammatory cell infiltration (score) / Steatosis (score) / Total score of NAS / Fibrosis percentage / % HbAC (glycosylated hemoglobin) / ALT / AST / HDL-c / LDL-c / TC / TG: 7 weeks; for Ballooning lesion (score) / Inflammatory cell infiltration (score) / Steatosis (score) / Total score of NAS: liver H&E; for Ballooning lesion (score) / Inflammatory cell infiltration (score) / Steatosis (score): NAS criteria; for Fibrosis percentage: liver sirius red staining; for % HbAC (glycosylated hemoglobin): peripheral blood; for ALT / AST / HDL-c / LDL-c / TC / TG: serum; for HbA1c % decreased by, taking the HbA1C % of the model group as the baseline value: FIG. 20; for Percentage of decrease in % HbAC: model group as baseline; for Number of animal deaths: 13 enrolled
# Experimental: According to the dosage regimen, a certain amount of Tirzepatide and BG128 were weighed and the vehicle (pH=7.0, 20 mM sodium citrate buffer) was added to formulated to the corresponding concentration.
# • Germline: C57BL/6 • Grade: SPF level • Number and gender: 30 pregnant female mice • Supplier: Shanghai Jihui Laboratory Animal Care Co., Ltd. 1.3.2 Animal Feeding Management
# Animals were kept in the barrier system, the environmental conditions in the animal room were controlled as room temperature of 20° C.-26° C. and humidity of 40%-70%, and the breeders recorded once every morning and afternoon. Free drinking and normal feeding.
# Newborn male mice were subcutaneously injected with STZ (100 μg/mouse) within 48 h of birth and fed by the female mice for four weeks, then the fasting blood glucose of the male mice was determined.
# 10 newborn male mice were selected, without STZ injection, and fed by the female mice for four weeks. The male mice were separated into cages and fed with normal maintenance feed and used as the normal control group; other mice were fed with HFD feed for one week, the fasting blood glucose of the animals was determined, and according to the fasting blood glucose and body weight, the animals were randomly grouped into: normal control group, model group, Tirzepatide—0.15 mg/kg group, BG128—0.05 mg/kg group, BG128—0.15 mg/kg group, and BG128—0.5 mg/kg group, and see Table 12 for details.
# Administration began on the first day of week 2 of HFD feed feeding, and the experiment was ended after 7 weeks of continuous administration.
# Observation was performed at the start of the experiment once a day until the end of the experiment.
# The animals were weighed once every three days from the time of feeding with HFD feed until the end of the experiment.
# The food intake of the animals was recorded from the time of feeding with HFD feed until the end of the experiment. The remaining amount was weighed before administration each time.
# The fasting blood glucose was determined using the Roche blood glucose meter after 4 weeks of breast-feeding by the female mouse (that is, before HFD feeding), before administration, and 1 week, 2 weeks, 3 weeks, 4 weeks, 5 weeks, 6 weeks and 7 weeks after administration and at the end point of experiment.
# 3 days after the last administration, the animals were weighed and fasted for 6 hours; all experimental animals were anesthetized by intraperitoneal injection of pentobarbital sodium, non-anticoagulated whole blood was collected through the orbital venous plexus, stood at room temperature for 30 minutes, and centrifuged at 5000 rpm for 5 minutes, the serum was separated and frozen at −80° C. for the biochemical determination; and EDTA-K2 anticoagulated whole blood was collected through the orbital venous plexus and placed on wet ice for the determination of HbA1C content.
# The serum sample was taken from −80° C., and the contents of ALT, AST, TG, TC, HDL-c and LDL-c in serum and HbA1C in whole blood were determined by Hitachi 7060 automatic biochemical detector, and the content of insulin was determined by enzyme-linked immunosorbent assay kit.
# The mice were dissected according to procedure. After perfusion with pre-cooled normal saline, the liver was taken, photographed, weighed, soaked in 10% formalin and fixed for pathological HE staining. Liver paraffin sections of all animals were stained with HE according to KCI pathological staining standard SOP. All the stained sections were panoramically scanned by NanoZoomer Digital Pathology (S210, Hamamaci, Japan) scanner, and then observed at different magnifications by selecting different fields of view.
# The mice were dissected according to procedure. After perfusion with pre-cooled normal saline, the liver was taken, photographed, weighed, soaked in 10% formalin and fixed for pathological sirius red (SR) staining. Liver paraffin sections were stained with SR according to KCI pathological staining standard SOP.
# [1] = 0.05 mg/kg s.c. once every three days
# [2] = 0.15 mg/kg s.c. once every three days
# [3] = 0.5 mg/kg s.c. once every three days
smiles,measurement,setting,value
CNC(CCCCNC(=O)COCCOCCOCCNC(=O)COCCOCCOCCNC(=O)CCC(NC(=O)CC(=O)O)C(=O)O)C(N)=O (centres unmarked) [BG128],Fasting blood glucose,"0.05 mg/kg group, Before HFD (baseline)",18.28 ± 1.18 mmol/L
same,Fasting blood glucose,"0.05 mg/kg group, Before administration (baseline)",25.59 ± 0.91 mmol/L
same,Ballooning lesion (score),[1],0.00 ± 0.00
same,Inflammatory cell infiltration (score),[1],0.91 ± 0.08ª
same,Steatosis (score),[1],0.52 ± 0.12ª
same,Total score of NAS,[1],1.42 ± 0.14ª
same,Fibrosis percentage,[1],1.11 ± 0.05^a %
same,% HbAC (glycosylated hemoglobin),[1],1.00 ± 0.23
same,ALT,[1],73.97 ± 9.20 U/L
same,AST,[1],155.44 ± 10.85 U/L
same,HDL-c,[1],2.30 ± 0.09 mmol/L
same,LDL-c,[1],0.56 ± 0.03^b mmol/L
same,TC,[1],3.81 ± 0.15^c mmol/L
same,TG,[1],1.09 ± 0.20^b mmol/L
same,Fasting blood glucose,"0.05 mg/kg s.c. once every three days, Administration for 1 week",15.62 ± 1.42^a mmol/L
same,Fasting blood glucose,"0.05 mg/kg s.c. once every three days, Administration for 2 weeks",14.13 ± 1.61^a mmol/L
same,Fasting blood glucose,"0.05 mg/kg s.c. once every three days, Administration for 3 weeks",16.89 ± 1.85^a mmol/L
same,Fasting blood glucose,"0.05 mg/kg s.c. once every three days, Administration for 4 weeks",12.89 ± 1.83^a mmol/L
same,Fasting blood glucose,"0.05 mg/kg s.c. once every three days, Administration for 5 weeks",18.32 ± 1.62^a mmol/L
same,Fasting blood glucose,"0.05 mg/kg s.c. once every three days, Administration for 6 weeks",21.82 ± 2.11^a mmol/L
same,Fasting blood glucose,"0.05 mg/kg s.c. once every three days, Administration for 7 weeks",18.89 ± 1.89^a mmol/L
same,Fasting blood glucose,"0.05 mg/kg s.c. once every three days, Endpoint",15.81 ± 1.83^a mmol/L
same,serum insulin concentration,"0.05 mg/kg s.c. once every three days, FIG. 19",decreased
same,"HbA1c % decreased by, taking the HbA1C % of the model group as the baseline value",[1],0.97%
same,Percentage of decrease in % HbAC,[1],−0.97 ± 0.23
same,Fasting blood glucose,"0.15 mg/kg group, Before HFD (baseline)",17.69 ± 0.81 mmol/L
same,Fasting blood glucose,"0.15 mg/kg group, Before administration (baseline)",25.71 ± 0.91 mmol/L
same,tolerance of model animals,[2],good tolerance
same,Ballooning lesion (score),[2],0.00 ± 0.00ª
same,Inflammatory cell infiltration (score),[2],0.90 ± 0.06ª
same,Steatosis (score),[2],0.46 ± 0.13ª
same,Total score of NAS,[2],1.36 ± 0.15ª
same,Fibrosis percentage,[2],1.10 ± 0.04^b %
same,% HbAC (glycosylated hemoglobin),[2],1.31 ± 0.19
same,ALT,[2],67.58 ± 7.73^a U/L
same,AST,[2],152.48 ± 6.56^a U/L
same,HDL-c,[2],1.83 ± 0.22 mmol/L
same,LDL-c,[2],0.65 ± 0.10^c mmol/L
same,TC,[2],3.25 ± 0.12^c mmol/L
same,TG,[2],0.84 ± 0.12^b mmol/L
same,Fasting blood glucose,"0.15 mg/kg s.c. once every three days, Administration for 1 week",15.43 ± 1.66^a mmol/L
same,Fasting blood glucose,"0.15 mg/kg s.c. once every three days, Administration for 2 weeks",14.61 ± 1.45^a mmol/L
same,Fasting blood glucose,"0.15 mg/kg s.c. once every three days, Administration for 3 weeks",14.83 ± 1.49^a mmol/L
same,Fasting blood glucose,"0.15 mg/kg s.c. once every three days, Administration for 4 weeks",14.52 ± 2.09^a mmol/L
same,Fasting blood glucose,"0.15 mg/kg s.c. once every three days, Administration for 5 weeks",15.75 ± 1.81^a mmol/L
same,Fasting blood glucose,"0.15 mg/kg s.c. once every three days, Administration for 6 weeks",17.88 ± 2.05^a mmol/L
same,Fasting blood glucose,"0.15 mg/kg s.c. once every three days, Administration for 7 weeks",17.26 ± 1.97^a mmol/L
same,Fasting blood glucose,"0.15 mg/kg s.c. once every three days, Endpoint",16.85 ± 2.04^a mmol/L
same,serum insulin concentration,"0.15 mg/kg s.c. once every three days, FIG. 19",statistically significant compared with the db/db-NDJ group
same,"HbA1c % decreased by, taking the HbA1C % of the model group as the baseline value",[2],0.66%
same,Percentage of decrease in % HbAC,[2],−0.66 ± 0.19
same,Fasting blood glucose,"0.5 mg/kg group, Before HFD (baseline)",18.59 ± 0.88 mmol/L
same,Fasting blood glucose,"0.5 mg/kg group, Before administration (baseline)",25.81 ± 1.08 mmol/L
same,tolerance of model animals,0.50 mg/kg s.c. once every three days,good tolerance
same,Ballooning lesion (score),[3],0.00 ± 0.00
same,Inflammatory cell infiltration (score),[3],1.03 ± 0.05ª
same,Steatosis (score),[3],0.33 ± 0.08ª
same,Total score of NAS,[3],1.36 ± 0.10ª
same,Fibrosis percentage,[3],1.07 ± 0.05^c %
same,% HbAC (glycosylated hemoglobin),[3],0.94 ± 0.25^a
same,ALT,[3],58.46 ± 5.38^b U/L
same,AST,[3],150.54 ± 6.26^a U/L
same,HDL-c,[3],2.13 ± 0.13 mmol/L
same,LDL-c,[3],0.62 ± 0.03^c mmol/L
same,TC,[3],3.53 ± 0.09^c mmol/L
same,TG,[3],0.88 ± 0.14^b mmol/L
same,Fasting blood glucose,"0.5 mg/kg s.c. once every three days, Administration for 1 week",11.39 ± 0.86^a mmol/L
same,Fasting blood glucose,"0.5 mg/kg s.c. once every three days, Administration for 2 weeks",12.82 ± 1.12^a mmol/L
same,Fasting blood glucose,"0.5 mg/kg s.c. once every three days, Administration for 3 weeks",13.35 ± 1.37^a mmol/L
same,Fasting blood glucose,"0.5 mg/kg s.c. once every three days, Administration for 4 weeks",11.39 ± 1.20^a mmol/L
same,Fasting blood glucose,"0.5 mg/kg s.c. once every three days, Administration for 5 weeks",12.31 ± 1.47^a mmol/L
same,Fasting blood glucose,"0.5 mg/kg s.c. once every three days, Administration for 6 weeks",12.17 ± 1.70^abd mmol/L
same,Fasting blood glucose,"0.5 mg/kg s.c. once every three days, Administration for 7 weeks",10.45 ± 1.34^acd mmol/L
same,Fasting blood glucose,"0.5 mg/kg s.c. once every three days, Endpoint",12.27 ± 1.61^a mmol/L
same,serum insulin concentration,"0.5 mg/kg s.c. once every three days, FIG. 19",statistically significant compared with the db/db-NDJ group
same,"HbA1c % decreased by, taking the HbA1C % of the model group as the baseline value",[3],1.04%
same,Percentage of decrease in % HbAC,[3],−1.04 ± 0.25
same,Number of animal deaths,"Group-3/Group-5, 0.15 mg/kg s.c. once every three days",0
same,Number of animal deaths,"Group-4, 0.05 mg/kg s.c. once every three days","2 (Day 45, 51)"
same,Number of animal deaths,"Group-6, 0.5 mg/kg s.c. once every three days",0
same,body weight after the first administration,"Tirzepatide 0.15 mg/kg, BG128 0.05, 0.15, 0.5 mg/kg s.c., FIG. 16",positively correlated with the administration dose
same,food intake compared with Tirzepatide,"equal dose (0.15 mg/kg s.c.), FIG. 17",lower than that of the Trizepatide administration animals in the group with the equal dose
same,effect on serum insulin compared with Tirzepatide,"equal dose (0.15 mg/kg s.c.), FIG. 19",better than that of the Tirzepatide group at an equal dose
